One test has as its system OT1 CD8+ T-cells. Kind of test: Flow cytometry of surface activation and memory markers on in vitro cultured OT1 CD8+ T-cells. The format is cell-based, mouse. The following applies: 5 μM inhibitor day 0-3, flow cytometry on day 3 and 7. On the procedure: (§1) Example 2. In vitro culture of splenocytes comprising CD8+ T-cells. OT1 splenocytes (as described in Example 1) were cultured for 3 days at a concentration of 10^6 cells per mL in RPMI medium (Gibco 61870-01) supplemented with 10% FCS, (Gibco 10270-106), 1% Penicillin/Streptomycin (P/S; Gibco 15070-063), 0.1% 13-mercaptoethanol, 1% HEPES (Gibco 15630-080), 1× Non-essential amino acids (Gibco 11140-035), 1% L-glutamine (Gibco 25030-081), 1 mM Sodium Pyruvate (Gibco 11360-039), 100 U/m1 hIL-2 (Glaxo-IMB) and 1 μg/ml ovalbumin N4 peptide (SIINFEKL). To evaluate the effects of IDH2 inhibition on T-cell differentiation, 5 μM of a small molecule IDH2 inhibitor (AG221 or AGI6780) or a DMSO solvent control was added during this 3-day culture period. At day 3, a fraction of the splenocytes was collected and the remaining cells were cultured for 4 additional days with 100 U/ml hIL-2 and 10 ng/ml hIL-7 (Peprotech 200-07) supplementation after washing out the inhibitors and the ovalbumine N4 peptide (FIG. 1). At day 3 and day 7, the activation and differentiation state of CD8+ T-cells was determined by gene expression analysis, flow cytometry and extracellular metabolic flux analyses (see Example 3).
Cells were incubated in a live/dead stain (Fixable aqua dead cell stain kit, Invitrogen) followed by an incubation with different antibody panels.
Antibody panel to determine the differentiation and activation state of in vitro cultured T-cells (see Examples 2 and 4): anti-CD8-PE-texas-Red, anti-CD62L-FITC, anti-CD127-PE, anti-CD27-PerCP-Cy5.5, anti-CD71-PE-Cy7, anti-CD44-APC-Cy7, anti-CD98-APC, anti-CD25-Pacific blue (BD Pharmingen and eBioscience, San Diego, Calif., USA). All those antigens are surface molecules. Cells were gated on living single CD8+ cells before analysis of activation and memory marker expression. For the unstained control, cells were stained with the live/dead stain and anti-CD8-PE-texas-Red.
Cells were acquired on LSR-II flow cytometers from the flow cytometry facility of UNIL and data were analyzed with FlowJo™ 10 software. Antibodies were purchased from BD Phamingen (San Diego, Calif., USA), eBioscience (San Diego, Calif., USA, and Biolegend (San Diego, Calif., USA).
(In general: Flow cytometry measures light scatter and fluorescence of single cells or particles in a stream.)

Test [1] deals with accessible chromatin regions in OT1 T-cells. Put plainly: ATAC-seq of OT1 T-cells. It is filed as cell-based, mouse. The following applies: day 7, 5 μM day 0-3, compared to DMSO-treated T-cells. On the procedure: (§2) Methods: OT1 splenocytes were activated and cultured with 5 μM AG221 or DMSO as described in Example 2. After 3 days, the cells were washed and the IDH2 inhibitor was washed out as well. The cells were then cultured for an additional 4 days in the absence of AG221. At day 7, the cells were collected and washed once with PBS. 50′000 cells were collected for ATAC-seq while the remaining cell pellet was lysed in extraction buffer (20 mM Tris HCl, 150 mM NaCl, 1% Triton X-100, 10% glycerol, 5 mM EDTA) supplemented with Complete Mini protease inhibitor (Roche) for wester blotting.
For ATAC-seq cells were transposed with the Illumina Tagment DNA Enzyme and Buffer Small Kit according to the protocol described by Buenrostro et al. (Curr Protoc Mol Biol. 2015 Jan 5;109:21.29.1-21.29.9.). Fragments were sequenced on an Illumina NextSeq 500 instrument.

In test [2] the test system is Sell (CD62L) mRNA in OT1 cells. Kind of test: Sell (CD62L) gene expression by quantitative real time RT-PCR in OT1 cells. It is filed as cell-based, mouse. Here is the method:
as §1, with “At day 3, a fraction of the splenocytes was collected and the remaining cells were cultured for 4 additional days with 100 U/ml hIL-2 and 10 ng/ml hIL-7 (Peprotech 200-07) supplementation after washing out the inhibitors and the ovalbumine N4 peptide (FIG. 1).” left out
a) Gene expression analysis by quantitative real time RT-PCR RNA was isolated with the RNeasy mini kit (Qiagen) and cDNA was generated by reverse transcription (Applied Biosystems). […] Gene expression was calculated relative to […] (FW primer: 5′ aga ctg ata cat acg cct gca g 3′, RV primer: 5′ gca ggt tca aat gaa tct tca g 3′).
For orientation: In qPCR the cycle at which signal appears reflects the starting amount.

Test [3] deals with histone H3 (H3K4-3Me, H3K27-Ac) in OT1 T-cells. Put plainly: Western blot of histone H3 modifications in OT1 T-cells. The format is cell-based, mouse. The following applies: day 7, 5 μM day 0-3, western blot, versus DMSO. Here is the method: as §2
For western blotting, an equal amount of protein (as measure by the BCA protein assay kit, Thermo Scientific) was size-separated on a 12.5% polyacrylamide gel and transferred to a 0.2 μm nitrocellulose membrane (Bio-Rad). The following antibodies were used: β-Actin (AC-74) from Sigma Aldrich, H3K4-trimethyl (C42D8) and H3K27-acetyl (D5E4) from Cell Signaling, and appropriate HRP-labelled secondary antibodies (Santa Cruz). The signal was visualized with ECLTM Select Western Blotting Detection Reagent from Sigma Aldrich or SuperSignal West Femto Maximum Sensitivity Substrate from Thermo Scientific and acquired by the Fusion FX from Vilber.
Background: A western blot detects proteins with antibodies after separation by electrophoresis.

A further test deals with human CD8+ T-cells. Kind of test: Cytokine expression after PMA and Ionomycin restimulation of human CBMC-derived T-cells. The format is cell-based. The following applies: day 11 cells, inhibitors washed out, PMA and ionomycin 4 hours. On the procedure:
Methods: Mononuclear Cells were isolated from fresh umbilical cord blood on a Percoll Gradient (CBMCs). 10^4 CBMC's were seeded per well in a round bottom 96-well plate in RPMI with 10% human serum, and activated with (magnetic) αCD3/CD28 at a 1:2 cell:bead ratio and 300 U/ml rhIL-2, in the presence of 5 μM AG221 or DMSO, or 1 μM MK2206 (AKT inhibitor). After 11 days of culture, CD62L expression was analyzed by flow cytometry on a fraction of the cells (FIG. 15A). The other cells were washed 2 times and placed in a magnet to remove the inhibitors and the αCD3/CD28 beads. The cells were then rested for 4 hours before restimulating them for 4 hours with 1 ng/ml Phorbol 12-Myristate 13-Acetate (PMA, a PKC activator) and 50 μg/ml Ionomycin (a Ca^2+ ionophore, activating NF-KB and NFAT) in the presence of 50 μ/ml golgi inhibitor (Brefeldin A, BFA), allowing for the measurement of intracellular accumulation of different cytokines by flow cytometry.

Consider `CC(C)(O)CNc1nc(Nc2ccnc(C(F)(F)F)c2)nc(-c2cccc(C(F)(F)F)n2)n1` [AG221, 2-methyl-1-[[4-[6-(trifluoromethyl)pyridin-2-yl]-6-[[2-(trifluoromethyl)pyridin-4-yl]amino]-1,3,5-triazin-2-yl]amino]propan-2-ol], for which, in the test on OT1 CD8+ T-cells, the “CD62L surface expression compared to DMSO” value is “increased” and the “other surface markers (CD25, CD44, CD71, CD98, CD27, CD127) compared to DMSO” value was “generally unchanged”. In addition, the “more accessible regions in the DNA (ATAC-seq)” value in test [1] stood at 1633. Further, in test [2] (day 3, 5 μM, versus DMSO), the “Sell (CD62L) mRNA expression increase” value stood at 3 fold. Moreover, the “Sell (CD62L) mRNA expression increase” value in test [2] (day 7, 5 μM day 0-3, versus DMSO) is listed as 7 fold. Further, in test [3], the “acetylation of lysine residue 27 of histone H3” value is recorded as “increased” and the “trimethylation of lysine residue 4 of histone H3” value is recorded as “increased”. In the test on human CD8+ T-cells, the “TNF expression upon restimulation” value is reported as “unaffected”, the “expression of effector cytokine IFNγ upon restimulation” value is “significant upregulation” and the “production of IL-2 upon restimulation” value is reported as “unaltered”.

Source of the values: patent publication US20220325242A1, “IDH2 INHIBITION FOR PRODUCING T-CELLS AND B-CELLS WITH A MEMORY PHENOTYPE” (Universite de Lausanne, priority 2019, published 2022).
